The record followed here is patent US20240043435A1, “TYK-2 INHIBITOR” (BEIGENE, LTD., priority 2020, published 2024).

For test [1], the target named is T1, TYK2-JH2 (aa 575-869, in-house) protein (Homo sapiens, UniProt P29597).
T1 construct: TYK2-JH2 (aa 575-869, in-house) protein; made in house
Description: TYK2-JH2 biochemical assay (HTRF probe displacement). The class given is binding. Conditions: Biochemical assay; read-out: TYK2-JH2 IC50. The procedure, abridged: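 HTRF probe-displacement format: compound dilutions (10 points, 5-fold, from 500 uM in DMSO at 500×) were combined with 0.2 nM TYK2-JH2 protein for 0.5 h at room temperature in HEPES pH 7.5 buffer with MgCl2, BSA, DTT and Brij-35. Percent inhibition came from the 615/665 nm fluorescence ratio, fitted to a four-parameter logistic for IC50.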
In general terms: TR-FRET usually uses a lanthanide donor and a delayed reading to cut background.

For test [2], the system named is JAK2, TYK2/p-STAT4 (Tyr693) activated by IL-12 in NK-92 cell line. Description: IL-12-JAK2, TYK2/p-STAT4 (Tyr693) inhibition IC50 cellular assay. Type of test: cell-based. Conditions: for IC50: NK92, Cellular assay, read-out: pSTAT4/IL-12 IC50; for Selectivity fold (TYK2/JAK2): Cellular assay, pSTAT5/GM-CSF IC50 vs pSTAT4/IL-12 IC50. The procedure, abridged: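 p-STAT4 (Tyr693) in lysates was measured by AlphaLISA SureFire Ultra after a 30 min IL-12 challenge (40 ng/ml final) at 37° C. Overnight-starved, IL-2-free NK-92 cells had been pretreated 1 h with compound at 10000 to 0.61 nM (4-fold, 8 points). IC50 values came from four-parameter logistic fitting.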

For another test, the system named is pSTAT5/GM-CSF. Description: pSTAT5/GM-CSF cellular assay (JAK2 selectivity). The class given is cell-based. The note with it: for Selectivity fold (TYK2/JAK2): pSTAT5/GM-CSF IC50 over pSTAT4/IL-12 IC50.

Molecules are shown by their SMILES.

T1 sequence (P29597 575-869): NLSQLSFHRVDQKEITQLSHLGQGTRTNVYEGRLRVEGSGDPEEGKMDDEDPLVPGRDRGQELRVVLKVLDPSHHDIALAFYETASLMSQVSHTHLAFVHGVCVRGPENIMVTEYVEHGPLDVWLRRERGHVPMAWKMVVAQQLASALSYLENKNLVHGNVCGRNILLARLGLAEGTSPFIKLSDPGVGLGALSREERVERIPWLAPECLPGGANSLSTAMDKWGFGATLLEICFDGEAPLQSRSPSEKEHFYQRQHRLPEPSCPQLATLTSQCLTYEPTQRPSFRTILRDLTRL

On to `COc1cc(S(C)(=O)=O)nc(Nc2cc(NC(C)=O)ncc2-c2ccc3c(n2)OCC(C)(C)O3)c1OC` [Example Q26, N-(4-((3,4-dimethoxy-6-(methylsulfonyl)pyridin-2-yl)amino)-5-(2,2-dimethyl-2,3-dihydro-[1,4]dioxino[2,3-b]pyridin-6-yl)pyridin-2-yl)acetamide], for which the IC50 was 0.032 nM in test [1], 1.53 nM in test [2] and 700 nM in the test on pSTAT5/GM-CSF. Further, in the test with pSTAT5/GM-CSF, the “Selectivity fold (TYK2/JAK2)” value is 457 fold.
For the compound `CC(=O)Nc1cc(Nc2cc(OCCO)cc(S(C)(=O)=O)n2)c(-c2ccn(C(C)C)n2)cn1` [Example M28, N-(4-((4-(2-hydroxyethoxy)-6-(methylsulfonyl)pyridin-2-yl)amino)-5-(1-isopropyl-1H-pyrazol-3-yl)pyridin-2-yl)acetamide], the IC50 was 0.032 nM in test [1], 16.6 nM in test [2] and more than 10000 nM in the test with pSTAT5/GM-CSF. The “Selectivity fold (TYK2/JAK2)” value in the test with pSTAT5/GM-CSF was more than 601 fold.
In the case of `COCCOc1cc(Nc2cc(NC(C)=O)ncc2-c2ccn(C)n2)cc(S(C)(=O)=O)c1` [Example J35, N-(4-((3-(2-methoxyethoxy)-5-(methylsulfonyl)phenyl)amino)-5-(1-methyl-1H-pyrazol-3-yl)pyridin-2-yl)acetamide], the IC50 is 0.036 nM in test [1], 8.13 nM in test [2] and more than 10000 nM with pSTAT5/GM-CSF. In addition, the “Selectivity fold (TYK2/JAK2)” value in the test on pSTAT5/GM-CSF is given as more than 1230 fold.
In the case of `COC(C)c1cc(Nc2cc(NC(C)=O)ncc2-c2ccc(N3C[C@@H](C)O[C@@H](C)C3)cn2)nc(S(C)(=O)=O)c1` (stereo partly drawn) [Example C18, N-(5-(cis-2,6-dimethylmorpholino)-4′-((4-(1-methoxyethyl)-6-(methylsulfonyl)pyridin-2-yl)amino)-[2,3′-bipyridin]-6′-yl)acetamide], the IC50 came out at 0.023 nM in test [1], 0.639 nM in test [2] and 4870 nM in the test with pSTAT5/GM-CSF. In test [2], the “Selectivity fold (TYK2/JAK2)” value stood at 7625 fold.
For `CC(=O)Nc1cc(Nc2cccc(S(C)(=O)=O)n2)c(-c2ccn(C(C)C)n2)cn1` [Example M22, N-(5-(1-isopropyl-1H-pyrazol-3-yl)-4-((6-(methylsulfonyl)pyridin-2-yl)amino)pyridin-2-yl)acetamide], the IC50 worked out at 0.027 nM in test [1], 0.316 nM in test [2] and 532 nM with pSTAT5/GM-CSF. The “Selectivity fold (TYK2/JAK2)” value with pSTAT5/GM-CSF turned out to be 1683 fold.
For `CC(=O)Nc1cc(Nc2cc(OC(C)C)cc(S(C)(=O)=O)n2)c(-c2ccn(CCO)n2)cn1` [Example A14, N-(5-(1-(2-hydroxyethyl)-1H-pyrazol-3-yl)-4-((4-isopropoxy-6-(methylsulfonyl)pyridin-2-yl)amino)pyridin-2-yl)acetamide], the IC50 in test [1] was 0.022 nM; in test [2] it was 0.969 nM; in the test with pSTAT5/GM-CSF, more than 10000 nM. The “Selectivity fold (TYK2/JAK2)” value in test [2] is listed as more than 10319 fold.
The like results for `CC(=O)Nc1cc(Nc2ccc(F)c(S(C)(=O)=O)n2)c(-c2ccc(C(C)(C)O)cn2)cn1` [Example H34, N-(4′-((5-fluoro-6-(methylsulfonyl)pyridin-2-yl)amino)-5-(2-hydroxypropan-2-yl)-[2,3′-bipyridin]-6′-yl)acetamide] were, in that order, 0.023 nM, 1.12 nM, more than 10000 nM and more than 8928 fold.
In the case of `COC1CC(Oc2cc(Nc3cc(NC(C)=O)ncc3-c3ccn(C)n3)nc(S(C)(=O)=O)c2)C1` (stereo not shown) [Example J18, N-(4-((4-(3-methoxycyclobutoxy)-6-(methylsulfonyl)pyridin-2-yl)amino)-5-(1-methyl-1H-pyrazol-3-yl)pyridin-2-yl)acetamide], the IC50 in test [1] is 0.028 nM; in test [2], 0.399 nM; in the test on pSTAT5/GM-CSF, more than 10000 nM. Besides, the “Selectivity fold (TYK2/JAK2)” value in the test with pSTAT5/GM-CSF was more than 25062 fold.
Regarding `COc1cc(Nc2cc(NC(C)=O)ncc2-c2ccn(C(C)C)n2)cc(S(C)(=O)=O)c1` [Example M27, N-(5-(1-isopropyl-1H-pyrazol-3-yl)-4-((3-methoxy-5-(methylsulfonyl)phenyl)amino)pyridin-2-yl)acetamide], the IC50 in test [1] was 0.035 nM; in test [2], 3.85 nM; in the test with pSTAT5/GM-CSF, more than 10000 nM. The “Selectivity fold (TYK2/JAK2)” value in the test on pSTAT5/GM-CSF is more than 2597 fold.
For the compound `CC(=O)Nc1cc(Nc2cc(S(C)(=O)=O)ccc2C)c(-c2ccc(C(C)(C)O)cn2)cn1` [Example H35, N-(5-(2-hydroxypropan-2-yl)-4′-((2-methyl-5-(methylsulfonyl)phenyl)amino)-[2,3′-bipyridin]-6′-yl)acetamide], the IC50 was 0.028 nM in test [1], 3.17 nM in test [2] and more than 10000 nM with pSTAT5/GM-CSF. For the same compound, the “Selectivity fold (TYK2/JAK2)” value in test [2] is listed as more than 3154 fold.
In the case of `CCn1ccc(-c2cnc(NC(C)=O)cc2Nc2cc(OC3CCCC3)cc(S(C)(=O)=O)n2)n1` [Example M17, N-(4-((4-(cyclopentyloxy)-6-(methylsulfonyl)pyridin-2-yl)amino)-5-(1-ethyl-1H-pyrazol-3-yl)pyridin-2-yl)acetamide], the figures for the IC50 (in test [1]; in test [2]; in the test on pSTAT5/GM-CSF) were 0.041 nM, 1.09 nM and more than 10000 nM, respectively. In the test with pSTAT5/GM-CSF, the “Selectivity fold (TYK2/JAK2)” value was more than 9174 fold.
On to `CC(=O)Nc1cc(Nc2cc(OCCO)cc(S(C)(=O)=O)c2)c(-c2cc(C)n(C)n2)cn1` [Example N3, N-(5-(1,5-dimethyl-1H-pyrazol-3-yl)-4-((3-(2-hydroxyethoxy)-5-(methylsulfonyl)phenyl)amino)pyridin-2-yl)acetamide], for which the IC50 was 0.033 nM in test [1], 12.6 nM in test [2] and more than 10000 nM in the test with pSTAT5/GM-CSF. The “Selectivity fold (TYK2/JAK2)” value in the test on pSTAT5/GM-CSF is more than 791 fold.
Consider `COc1ccc(-c2cnc(NC(C)=O)cc2Nc2cc(OCC3CC3)cc(S(C)(=O)=O)n2)nn1` [Example A25, N-(4-((4-(cyclopropylmethoxy)-6-(methylsulfonyl)pyridin-2-yl)amino)-5-(6-methoxypyridazin-3-yl)pyridin-2-yl)acetamide], for which the IC50 is 0.027 nM in test [1], 0.596 nM in test [2] and more than 10000 nM in the test on pSTAT5/GM-CSF. Further, the “Selectivity fold (TYK2/JAK2)” value in test [2] is reported as more than 16778 fold.
With `CCn1ccc(-c2cnc(NC(C)=O)cc2Nc2cc(OCCO)cc(S(C)(=O)=O)n2)n1` [Example M19, N-(5-(1-ethyl-1H-pyrazol-3-yl)-4-((4-(2-hydroxyethoxy)-6-(methylsulfonyl)pyridin-2-yl)amino)pyridin-2-yl)acetamide], the IC50 was 0.032 nM in test [1], 2.55 nM in test [2] and more than 10000 nM in the test on pSTAT5/GM-CSF. For the same compound, the “Selectivity fold (TYK2/JAK2)” value in the test on pSTAT5/GM-CSF was more than 3921 fold.
With `COc1ccc(Nc2cc(NC(C)=O)ncc2-c2ccn(C)n2)nc1S(C)(=O)=O` [Example J50, N-(4-((5-methoxy-6-(methylsulfonyl)pyridin-2-yl)amino)-5-(1-methyl-1H-pyrazol-3-yl)pyridin-2-yl)acetamide], the IC50 was 0.049 nM in test [1], 27.7 nM in test [2] and more than 10000 nM in the test with pSTAT5/GM-CSF. Further, the “Selectivity fold (TYK2/JAK2)” value in the test on pSTAT5/GM-CSF is reported as more than 361 fold.
`CC(=O)Nc1cc(Nc2cc(C)cc(S(C)(=O)=O)n2)c(-c2ccc(O[C@H]3CCOC3)cn2)cn1` [Example B21, (S)-N-(4′-((4-methyl-6-(methylsulfonyl)pyridin-2-yl)amino)-5-((tetrahydrofuran-3-yl)oxy)-[2,3′-bipyridin]-6′-yl)acetamide]: the results for the IC50 (in test [1]; in test [2]; in the test with pSTAT5/GM-CSF) were 0.047 nM, 0.443 nM and 2490 nM, respectively. Further, the “Selectivity fold (TYK2/JAK2)” value in test [2] was 5620 fold.
The like results for `CC(=O)Nc1cc(Nc2cccc(S(C)(=O)=O)n2)c(-c2ccc(OC3CCOC3)cn2)cn1` (stereo not shown) [Example B23, N-(4′-((6-(methylsulfonyl)pyridin-2-yl)amino)-5-((tetrahydrofuran-3-yl)oxy)-[2,3′-bipyridin]-6′-yl)acetamide] were, in that order, 0.04 nM, 0.307 nM, 1000 nM and 3260 fold.
Consider `CC(=O)Nc1cc(Nc2cc(OC(C)C)cc(S(C)(=O)=O)n2)c(-c2ccn(C(C)C)n2)cn1` [Example M23, N-(4-((4-isopropoxy-6-(methylsulfonyl)pyridin-2-yl)amino)-5-(1-isopropyl-1H-pyrazol-3-yl)pyridin-2-yl)acetamide], for which the IC50 in test [1] came out at 0.031 nM; in test [2], 1.08 nM; in the test on pSTAT5/GM-CSF it was 3750 nM. In addition, the “Selectivity fold (TYK2/JAK2)” value in the test on pSTAT5/GM-CSF was 3471 fold.
On to `COC1CCN(c2cc(Nc3cc(NC(C)=O)ncc3-c3ccc4c(n3)OCC(C)(C)O4)nc(S(C)(=O)=O)c2)CC1` [Example Q52, N-(5-(2,2-dimethyl-2,3-dihydro-[1,4]dioxino[2,3-b]pyridin-6-yl)-4-((4-(4-methoxypiperidin-1-yl)-6-(methylsulfonyl)pyridin-2-yl)amino)pyridin-2-yl)acetamide], for which the IC50 in test [1] amounted to 0.038 nM; in test [2], 1.33 nM; in the test on pSTAT5/GM-CSF, 3420 nM. The “Selectivity fold (TYK2/JAK2)” value in the test with pSTAT5/GM-CSF came to 2571 fold.
